Square brackets hold non-standard residues; d marks the D form. Peptide text beside a SMILES is read from it. * marks the point of attachment. X1 = CC(=O)N[C@@H]1[C@@H](O[C@@H]2O[C@H](CO)[C@H](O)[C@H](O)[C@H]2O)[C@@H](O)[C@@H](CO[C@@H]2O[C@H](CO)[C@@H](O[C@@H]3O[C@H](CO)[C@H](O)[C@H](O[C@]4(C(=O)O)C[C@H](O)[C@@H](NC(C)=O)[C@H]([C@H](O)[C@H](O)CO)O4)[C@H]3O)[C@H](O[C@@H]3O[C@@H](C)[C@@H](O)[C@@H](O)[C@@H]3O)[C@H]2NC(C)=O)O[C@@H]1*; Phe(4-CH2SO3H) = N[C@@H](Cc1ccc(CS(=O)(=O)O)cc1)C(=O)O; Mca = COc1ccc2c(CC(=O)*)cc(=O)oc2c1
How the values were obtained:
[1] = test system: P-selectin (recombinant Ig chimera); experiment: Microarray binding screen of glycopeptide mimics, P-selectin; parameters: species or system human and mouse; conditions: selectin Ig chimeras 5-20 μg/mL, Alexa-488 anti-human IgG
Protocol: Bound peptides were detected using Alexa-488 labeled anti-human IgG antibody (5 μg/mL). Three lectins RCA-1, AAL, and PNA were used to confirm the sequence of enzymatic steps. Monoclonal antibodies CHO131, PSG2 antibody and PL-1 were used to confirm the presence of SLex, tyrosine sulfates, and the peptide sequence, respectively. Biacore binding analysis to human P-selectin with observed rate constants for (D) GSnP-6, kon 3.1×10^5 M^−1s^−1, koff 6.9×10^3 M^−1s^−; GSn2P-6, kon6.4×10^5 M^−1s^−1, koff 6.8×10^3 M^−1s. Biacore binding analysis to mouse P-selectin with observed rate constants for (E) GsnP-6, kon 4.9×10^4 M^−1s^−1, koff 8.0×10^3 M^−1s^−; GSn2P-6 kon 5.3×10^4 M^−1s^−1, koff 9.0×10^3 M^−1s. (F) Temperature- and pH-dependent stability studies of GSnP-6.
Binding affinities of PSGL-1 mimics towards selectins was initially screened using a microarray in which glycosulfopeptides and glycan standards (Sialyl Le^x, NA2, NA2,3, NA2,6 and LNnT) were printed on a NHS-activated glass slide. The slide was then incubated with recombinant Ig chimeras of P-, L-, or E-selectin (5-20 μg/mL) followed by Alexa-488 labeled anti-human IgG antibody (5 μg/mL). […] Binding of glycopeptides mimics to selectins was […] dependent and inhibited by EDTA.

[2] = target: T1, Recombinant mouse L-selectin Fc chimera (Mus musculus, UniProt P18337); experiment: Flow cytometry, inhibition of mouse L-selectin Fc chimera binding to murine neutrophils; format: cell-based; conditions: chimera 2 μg/mL, read-out: IC50, PSGL-1/L-selectin interactions, murine neutrophils
T1 sequence (P18337 39-372): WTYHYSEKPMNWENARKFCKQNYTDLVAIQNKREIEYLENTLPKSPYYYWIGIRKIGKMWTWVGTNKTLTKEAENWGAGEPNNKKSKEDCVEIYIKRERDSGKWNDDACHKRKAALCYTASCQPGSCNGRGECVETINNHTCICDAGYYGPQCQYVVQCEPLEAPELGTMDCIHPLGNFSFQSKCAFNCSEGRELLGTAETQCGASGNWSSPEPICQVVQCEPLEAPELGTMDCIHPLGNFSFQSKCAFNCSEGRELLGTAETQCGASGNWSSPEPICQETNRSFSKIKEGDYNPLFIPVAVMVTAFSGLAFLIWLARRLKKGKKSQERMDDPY
Protocol: Flow cytometry was used to characterize the ability of GSnP-6 to block binding of selectin-IgG chimeras to murine and human leukocytes. Recombinant mouse P- or L-selectin Fc chimera (2 μg/mL) was incubated with murine neutrophils and GSnP-6 (0-30 μM). Likewise, recombinant human P-selectin or L-selectin Fc chimera were incubated with human peripheral blood neutrophils and monocytes, as well as the human U937 cell line in the presence of GSnP-6 (0-30 μM). Binding of selectin-IgG chimeras was detected with PE-conjugated anti-IgG antibody, quantified as mean fluorescent intensity, and plotted as percent inhibition. Specificity was confirmed with selectin-specific blocking antibodies.

[3] = target: T2, E-selectin (E-sel-Ig) (Homo sapiens, UniProt P16581); experiment: Biacore binding assay, E-selectin; conditions: compared with P-selectin
T2 sequence (P16581 22-610): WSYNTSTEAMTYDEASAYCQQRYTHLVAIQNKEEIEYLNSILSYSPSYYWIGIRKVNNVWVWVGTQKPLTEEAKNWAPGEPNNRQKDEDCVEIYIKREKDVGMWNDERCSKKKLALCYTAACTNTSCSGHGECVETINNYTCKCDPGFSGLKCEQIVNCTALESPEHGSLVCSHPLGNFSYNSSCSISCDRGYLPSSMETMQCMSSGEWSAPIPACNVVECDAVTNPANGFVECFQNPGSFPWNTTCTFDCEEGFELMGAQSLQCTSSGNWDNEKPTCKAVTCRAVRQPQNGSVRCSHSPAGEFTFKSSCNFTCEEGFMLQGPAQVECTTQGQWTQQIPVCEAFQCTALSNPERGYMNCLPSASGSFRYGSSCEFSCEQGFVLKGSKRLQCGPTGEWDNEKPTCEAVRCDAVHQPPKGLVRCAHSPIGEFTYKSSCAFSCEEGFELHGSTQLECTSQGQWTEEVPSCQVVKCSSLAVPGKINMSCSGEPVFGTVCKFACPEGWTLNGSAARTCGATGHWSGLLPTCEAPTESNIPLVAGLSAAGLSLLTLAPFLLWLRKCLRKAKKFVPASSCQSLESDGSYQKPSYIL
Protocol: Dissociation constants (Kd) were determined using a Biacore binding assay after initial capture of biotinylated GS(n)P-6 onto streptavidin-coated sensor chips followed by flow through of P-, L- or E-sel-Ig (2.5 to 60 μg/mL). […] The Kd of GSnP-6 to murine P-selectin was ˜9-fold lower than to human P-selectin.

[4] = test system: leukocyte binding to microvascular endothelium; experiment: Intravital microscopy of murine cremaster muscle microcirculation, leukocyte rolling; format: in vivo; conditions: mouse cremaster venules 30 to 40 μm, 4 μmol/kg IV, saline 40.8±1.7, p≤0.01
Protocol: Intravital microscopy was used to determine the ability of GsnP-6 to inhibit leukocyte binding to microvascular endothelium. PSGL-1 expressed on circulating leukocytes binds to selectins on endothelium; inducing leukocyte rolling to facilitate subsequent tight binding to integrin receptors. Inhibition of this interaction leads to an increase in rolling velocity. Intravital microscopy of the murine cremaster muscle microcirculation was performed on venules with a diameter of 30 to 40 μm. Seven venules per mouse (n=4, saline (control); n=3, GSnP-6, 4 μmol/kg IV) were analyzed and the velocities of 5 to 10 rolling leukocytes were determined in each venule by individually tracking leukocyte distance/time (μm/s). A significant increase in mean rolling velocity was observed after intravenous administration of GSnP-6 (FIG. GsnP-6: 74.9±3.4 μm/s, saline: 40.8±1.7 μm/s; p≤0.01).

COc1ccc2c(CC(=O)NCCCC[C@H](N)C(=O)N[C@@H](CCC(=O)O)C(=O)N[C@@H](Cc3ccc(CS(=O)(=O)O)cc3)C(=O)N[C@@H](CCC(=O)O)C(=O)N[C@@H](Cc3ccc(CS(=O)(=O)O)cc3)C(=O)N[C@@H](CC(C)C)C(=O)N[C@@H](CC(=O)O)C(=O)N[C@@H](Cc3ccc(CS(=O)(=O)O)cc3)C(=O)N[C@@H](CC(=O)O)C(=O)N[C@@H](Cc3ccccc3)C(=O)N[C@@H](CC(C)C)C(=O)N3CCC[C@H]3C(=O)N[C@@H](CCC(=O)O)C(=O)N[C@H](C(=O)N[C@@H](CCC(=O)O)C(=O)N3CCC[C@H]3C(=O)N[C@@H](CC(C)C)C(=O)O)[C@@H](C)O[C@H]3O[C@H](CO[C@@H]4O[C@H](CO)[C@@H](O[C@@H]5O[C@H](CO)[C@H](O)[C@H](O[C@]6(C(=O)O)C[C@H](O)[C@@H](NC(C)=O)[C@H]([C@H](O)[C@H](O)CO)O6)[C@H]5O)[C@H](O[C@@H]5O[C@@H](C)[C@@H](O)[C@@H](O)[C@@H]5O)[C@H]4NC(C)=O)[C@H](O)[C@H](O[C@@H]4O[C@H](CO)[C@H](O)[C@H](O)[C@H]4O)[C@H]3NC(C)=O)cc(=O)oc2c1 [GSnP-6] (H-K(Mca)E[Phe(4-CH2SO3H)]E[Phe(4-CH2SO3H)]LD[Phe(4-CH2SO3H)]DFLPET(X1)EPL-OH)
binding to P-selectin compared with E- or L-selectin [1]: bound to P-selectin more strongly than to E- or L-selectin
IC50 [2]: > 50 µM
apparent affinity to E-selectin [3]: even lower apparent affinity
mean leukocyte rolling velocity [4]: increased leukocyte rolling velocity
mean leukocyte rolling velocity ([4]; listed as GsnP-6): 74.9±3.4 μm/s
